Measured values: patent US4342700A, “Oxidation-reduction reagents for a wet desulfurization process and a process for preparing same” (Mitsui Toatsu Chemicals, Inc., priority 1978, dated 1982)

How the values were obtained:
[1] = Test for absorbing hydrogen sulfide according to the Stretford process (wet desulfurization)
Description: In view of the solubility and oxidation-reduction characteristics above described, the anthraquinone compounds of the general formulas (I) and (II) are expected to exert an equivalent performance to anthraquinone-2,7-disulfonate as an oxidation-reduction reagent used for the Stretford process. […] The results of the test are given in Examples 11-17. The compounds of the general formulas (I) and (II) exerted in the Stretford process an equivalent desulfurization performance to anthraquinone-2,7-disulfonates. In other words, these anthraquinone compounds are quite equivalent to or somewhat better than anthraquinone-2,7-disulfonate in elimination rate of hydrogen sulfide (desulfurization ratio), a conversion rate of the absorbed hydrogen sulfide to elemental sulfur and a concentration of the residual hydrogen sulfide in the refined gas.
(§1) An absorption column was prepared by charging a glass tube (with a jacket) of 10 cm in inner diameter and 100 cm in length with a basket type filler of polypropylene (Tellerette S available from Nittetsu Kakoki KK, Japan) with a diameter of 1 cm up to a height of 95 cm. A hydrogen sulfide-containing gas prepared by mixing a gas composed of 6% carbon dioxide and 94% nitrogen with hydrogen sulfide in an amount of 5 g/Nm^2 was introduced at a flow rate of 230 l/hr. into the absorption column from the bottom thereof. On the other hand, an alkaline aqueous solution containing 0.03 mol/l of sodium metavanadate and 0.005 mol/l of sodium 2-carboxyanthraquinonemonosulfonate, which had been adjusted to have a pH value of 9 by addition of sodium carbonate and was kept at 40° C. was sprayed at a rate of 4.6 l/hr. into the absorption column from the top thereof whereby the hydrogen sulfide-containing gas was brought in the column into contact with the alkaline aqueous solution.
A gas/liquid ratio in this case was 0.02. From the lower part of the absorption column, the liquid was discharged and conveyed into a regeneration column made of a glass tube (with a jacket) of 10 cm in inner diameter and 100 cm in length where elementary sulfur was completely precipitated from the liquid by blowing air thereinto. A residence time of the liquid in the regeneration column was 20 minutes.
as §1, with “lenght” for “length”, “S)” for “S available from Nittetsu Kakoki KK, Japan)”, “g/Nm^3” for “g/Nm^2”, “2-phenoxyanthraquinonetrisulfonate,” for “2-carboxyanthraquinonemonosulfonate,”, “solution. A gas/liquid ratio in this case was 0.02. From the lower part of the absorption column, the liquid was discharged and conveyed into a regeneration column made of a glass tube (with a jacket) of 10 cm in inner diameter and 100 cm in length where elementary sulfur was completely precipitated from the liquid by blowing air thereinto. A residence time of the liquid in the regeneration column was 20 minutes.” for “solution.”
An absorption column was prepared by charging a glass tube (with a jacket) of 10 cm in inner diameter and 100 cm in length with a basket type filler of polypropylene (Tellerett S) with a diameter of 1 cm up to a height of 95 cm. […]

[2] = Solubility (g/l, 25° C.) in alkaline inorganic salt solutions and water; conditions: for Solubility: 25° C.
[3] = basic aqueous solution used in the Stretford process; background statement; cited from earlier work
[4] = Time required for being reduced to the leuco form by sodium vanadite; type: physicochemical; conditions: 38° C., nitrogen, sodium vanadite 0.02 mol/l, anthraquinonesulfonate 0.04 mol/l, NaOH 0.04 mol/l
Method: (§2) Easiness in oxidation-reduction of these compounds is evaluated by their standard oxidation-reduction potential and their oxidation and reduction rates.

[5] = Time required for oxidation by air to regenerate the quinone form; type: physicochemical; conditions: 38° C., leucoanthraquinonesulfonate 0.04 mol/l, NaOH 0.08 mol/l
Method: as §2
**Air was absorbed at 38° C. in an aqueous solution containing a
given leucoanthraquinonesulfonate (0.04 mol/l) and sodium hydroxide (0.08
mol/l) under agitation whereby the time required for finishing the
airabsorption was measured.

[6] = pH of solution in pure water; type: physicochemical
[7] = Standard oxidation-reduction potential Eo; type: physicochemical; conditions: for Standard oxidation-reduction potential Eo: 25° C.; for oxidation-reduction characteristics compared with anthraquinone-2,7-disulfonate (in words): from Table 2 (reaction rates and Eo)
Method: as §2

[8] = Examples 11-12: 0.005 mol/l reagent, 0.03 mol/l sodium metavanadate, pH 9, 40° C., H2S gas 230 l/hr, liquid 4.6 l/hr
[9] = 20g Na2 CO3 + 300g Na2 S2 O3 in 1 liter of water
[10] = 20g Na2 CO3 + 300g NaSCN in 1 liter of water
[11] = Mixed aqueous solution: 20 g/l sodium carbonate, 50 g/l sodium sulfate, 100 g/l sodium thiosulfate, 150 g/l sodium thiocyanate
[12] = Examples 13-15: 0.005 mol/l reagent, 0.03 mol/l sodium metavanadate, pH 9, 40° C., H2S gas 5 g/Nm^3, 230 l/hr
[13] = Example 17: same manner as described in Example 13 (so in the source)
[14] = practical use, Stretford process

Compound | desulfurization ratio [1, 8] | Solubility [2, 9] | Solubility [2, 10] | Solubility [2, 11] | Solubility ([2]; Water) | desulfurization ratio [1, 12] | Time required for reduction to the leuco form [4] | Time required for oxidation to regenerate the quinone form [5] | Standard oxidation-reduction potential Eo [7] | other results
ammonium 2-carboxyanthraquinonemonosulfonate | at least 99.7% | – | – | – | – | – | – | – | – | –
O=C1c2ccc(S(=O)(=O)[O-])cc2C(=O)c2ccc(S(=O)(=O)[O-])cc21.[Na+].[Na+] [reference compound] | – | < 1 mg/mL | < 1 mg/mL | < 1 mg/mL | 39 mg/mL | – | – | – | – | –
potassium 2-phenoxyanthraquinonetetrasulfonate | – | – | – | – | – | at least 99.7% | – | – | – | –
potassium 2-carboxyanthraquinonemonosulfonate | at least 99.7% | – | – | – | – | – | – | – | – | –
O=C1c2ccc(S(=O)(=O)O)cc2C(=O)c2ccc(S(=O)(=O)O)cc21 [anthraquinone-2,6-disulfonic acid] | – | – | – | – | – | – | – | – | – | solubility (in words) [3]: very poor solubility
ammonium 2-phenoxyanthraquinonetetrasulfonate | – | – | – | – | – | at least 99.7% | – | – | – | –
potassium 2-phenoxyanthraquinonetrisulfonate | – | – | – | – | – | at least 99.7% | – | – | – | –
sodium 2-carboxyanthraquinonemonosulfonate | ≥ 99.7% | 38 mg/mL | 25 mg/mL | 15 mg/mL | 12 mg/mL | – | 5 min | 15 min | 0.29 V | solubility as disodium salt ([2]; neutral or weakly alkaline solution, as disodium salt): ≥ 200 mg/mL; pH of the solution [6]: 3-4; oxidation-reduction characteristics compared with anthraquinone-2,7-disulfonate (in words) [7]: very similar in oxidation-reduction characteristics to sodium anthraquinone-2,7-disulfonate; quantity of sulfur recovered, % of hydrogen sulfide contained in the feed gas ([1]; Example 11: 0.005 mol/l reagent, 0.03 mol/l sodium metavanadate, pH 9, 40° C.): 97%
sodium 2-carboxyanthraquinonetetrasulfonate | – | – | – | – | – | – | – | – | – | desulfurization ratio [1, 13]: at least 99.7%
sodium 2-phenoxyanthraquinonetrisulfonate | – | > 200 mg/mL | > 100 mg/mL | > 100 mg/mL | > 400 mg/mL | ≥ 99.7% | 5 min | 15 min | 0.27 V | oxidation-reduction characteristics compared with anthraquinone-2,7-disulfonate (in words) [7]: very similar in oxidation-reduction characteristics to sodium anthraquinone-2,7-disulfonate; quantity of sulfur recovered, % of hydrogen sulfide contained in the feed gas ([1]; Example 13: 0.005 mol/l reagent, 0.03 mol/l sodium metavanadate, pH 9, 40° C.): 97%; desulfurization ratio [1, 13]: at least 99.7%
O=C1c2ccccc2C(=O)c2cc(Oc3ccc(S(=O)(=O)O)cc3S(=O)(=O)O)ccc21 [sodium 2-phenoxyanthraquinone-2',4'-disulfonate, reference compound] | – | – | – | – | – | – | – | – | – | standard oxidation-reduction potential ([7]; temperature not given): 0.21 V; suitability for use in the Stretford process (in words) ([1]; Stretford process): unsuited for use in the Stretford process; capturing rate for hydrogen sulfide (in words) [1, 14]: inferior; oxidation efficiency of hydrogen sulfide to elemental sulfur (in words) [1, 14]: inferior
O=C1c2ccc(S(=O)(=O)[O-])cc2C(=O)c2cc(S(=O)(=O)[O-])ccc21.[Na+].[Na+] [reference compound] | 99.6% | 10 mg/mL | 8 mg/mL | 5 mg/mL | 305 mg/mL | – | 5 min | 15 min | 0.29 V | –
Sodium 2-phenoxyanthraquinonetetrasulfonate | – | > 300 mg/mL | > 200 mg/mL | > 200 mg/mL | > 600 mg/mL | at least 99.7% | 5 min | 15 min | 0.28 V | oxidation-reduction characteristics compared with anthraquinone-2,7-disulfonate (in words) [7]: very similar in oxidation-reduction characteristics to sodium anthraquinone-2,7-disulfonate
